In paper PMC3093405, “A Motif Unique to the Human Dead-Box Protein DDX3 Is Important for Nucleic Acid Binding, ATP Hydrolysis, RNA/DNA Unwinding and HIV-1 Replication” (PLoS ONE, 2011):
Ends that are not written are not given here.

Columns and labels:
[1] = ATPase activity assay ([γ-32P]ATP hydrolysis, TLC), steady-state kinetics; type: biochemical
Procedure: (§1) The ATPase activity was determined, as previously described, by directly monitoring [γ-^32P] ATP hydrolysis by thin-layer chromatography (TLC). ATP (3000 Ci/mmol) as tracer, plus 1 mM of cold ATP, unless otherwise stated, and nucleic acids as indicated. Samples were incubated for 5 minutes at 25°C and dotted onto TLC sheets of polyethylenimine cellulose. The products were separated by ascending chromatography with 0.5 M KH2PO4 (pH 3.4). The intensities of the radioactive bands corresponding to ATP and Pi were quantified by densitometric scanning with PhosphoImager. For the stimulation of the ATPase activity, the ssDNA oligonucleotide oligo(dT)20 or the ssRNA oligonucleotide oligo (rU)20 were used. Time-course experiments were performed under the conditions described above. Samples were taken at different time points and processed as described above.
ATPase reactions were performed as described, in the presence of increasing amounts of nucleic acids and variable ATP concentrations. […] The relative -fold increase in the ATPase velocities 1−(vDNA/v) as a function of the nucleic acid concentrations was fitted to the hyperbolic relationship: [drawing 2] (2) where vNA is the apparent velocity of the reaction in the presence of nucleic acid, v is the velocity in its absence, KD is the apparent affinity for the nucleic acid and [NA] is the concentration of the nucleic acid substrate. The symbol KD is used, instead of Km, solely to reflect the fact that the NA is not a reactant (i.e. it is not converted into products) but only a cofactor of the reaction, without implying any assumption on the nature of the microscopic rates contributing to the KD value itself.

[2] = ATPase time-course (burst kinetics); type: biochemical
Procedure: as §1
Variation of the ATPase reaction as a function of time was fitted to the mixed-exponential equation: [drawing 3] (3) where [P] is the concentration of products (pmols) at any given time point, t is time, Aburst is the burst amplitude, k burst is the rate of the exponential phase, k ss is the rate of the steady-state linear phase.

[3] = tested on: 18/36mer ds RNA oligonucleotide; assay: RNA helicase assay; type: biochemical
Description: (§2) The helicase activity of DDX3wt and mutant forms was monitored by measuring the conversion of a double stranded (ds) DNA or RNA (labelled at the 5′-end of one strand with a 6-FAM fluorescent group) into single stranded (ss) nucleic acid. For the RNA helicase assay, a 18/36mer ds RNA oligonucleotide with both 3′ and 5′-protruding ss ends was used. For the DNA helicase assay, three different dsDNA substrates were used, all of them composed of the same 18mer oligonucleotide 5′-FAM labelled and three different 38 mer oligonucleotides with the sequence complementary to the 18 mer at different positions. Annealing of the 18 mer to each of the 38 mer generated the different DNA substrates shown in Fig. 5 A. A final concentration of 20 nM RNA or DNA substrate was used in the experiments, unless otherwise stated. The amounts of the different DDX3 proteins are indicated in the respective Figures.
(§3) Reactions were performed in 50 mM TrisHCl pH 7.5, 1 mM DTT, 0.2 mg/ml BSA, 5% glycerol and 1 mM ATP, 10 mM MgCl2 at 37°C degrees for 10′ and stopped by adding EDTA 50 mM pH 8. Products were separated on a native 7% PAGE […] at 5 W in TBE buffer with 0.1% SDS at 4°C for 2 hours for RNA substrates, 4 hours for DNA substrates. Substrates and products were quantified by laser scanning densitometry (Thyphoon-TRIO, GE Healthcare). For trap-assays, the enzyme and the RNA substrate were incubated on ice for 4 min, in the absence of ATP. Reactions were started by addition of ATP and a 50-fold molar excess (1 µM) of r(A)40 trap RNA oligonucleotide, followed by incubation at 37°C for the indicated times.
Variation of the amount of unwound RNA substrate as a function of time was fitted to a simple exponential equation: [drawing 4] (4) where MAX is the amount of unwound substrate extrapolated at infinite time, kuw is the apparent rate of unwinding.

[4] = tested on: partially dsDNA substrates (18/38-mer); assay: DNA helicase assay; type: biochemical
Description: as §2, §3

[5] = target: T1, DDX3wt (Homo sapiens, UniProt O00571); assay: Inhibition of DDX3wt ATPase activity; type: biochemical; settings: increasing amounts of inhibitor
T1 construct: DDX3wt (aa 1–662), and the N-DDX3 (aa 1–427); N-terminal peptide of ~3 kDa comprising 6xHis (pTrcHisA) (N); seven additional amino acids KQGCFGG (C); made in house; host or cells: E. coli BL-21
Procedure: as §1

[6] = target: T2, N-DDX3 (Homo sapiens, UniProt O00571); assay: Inhibition of N-DDX3 ATPase activity; type: biochemical; settings: increasing amounts of inhibitor
T2 construct: The N-DDX3 mutant (aa 1–427) was obtained using the forward primer; N-terminal peptide of ~3 kDa comprising 6xHis (pTrcHisA) (N); seven additional amino acids KQGCFGG (C); made in house; host or cells: E. coli BL-21
Procedure: as §1

[7] = tested on: HelaP4 cells; type: cell-based
Procedure: We therefore analyzed this peptide further, with respect to functional interference with HIV-1 replication. After fusion to a protein transduction domain, different amounts of the DDX3-INS1 peptide or a control peptide were transduced into HelaP4 cells 24 hours after infection with HIV-1Lai. HIV-1 infection was quantified 48–72 hours after infection by titering released HIV-1 in culture supernatants on Tzm-bl cells based on measuring the luciferase activity in the cell lysates. […] The DDX3-INS1 peptide was not toxic for the cells in the concentration range used (data not shown). Thus, binding of the peptide ligand to the DDX3 insertion, interferes with HIV-1 replication further providing evidence of an important functional role of the DDX3 insertion not only for enzymatic functions, but also for HIV-1 replication.

[8] = relative to absence of nucleic acid

T1 sequence (O00571 whole entry, the tested form may be a part): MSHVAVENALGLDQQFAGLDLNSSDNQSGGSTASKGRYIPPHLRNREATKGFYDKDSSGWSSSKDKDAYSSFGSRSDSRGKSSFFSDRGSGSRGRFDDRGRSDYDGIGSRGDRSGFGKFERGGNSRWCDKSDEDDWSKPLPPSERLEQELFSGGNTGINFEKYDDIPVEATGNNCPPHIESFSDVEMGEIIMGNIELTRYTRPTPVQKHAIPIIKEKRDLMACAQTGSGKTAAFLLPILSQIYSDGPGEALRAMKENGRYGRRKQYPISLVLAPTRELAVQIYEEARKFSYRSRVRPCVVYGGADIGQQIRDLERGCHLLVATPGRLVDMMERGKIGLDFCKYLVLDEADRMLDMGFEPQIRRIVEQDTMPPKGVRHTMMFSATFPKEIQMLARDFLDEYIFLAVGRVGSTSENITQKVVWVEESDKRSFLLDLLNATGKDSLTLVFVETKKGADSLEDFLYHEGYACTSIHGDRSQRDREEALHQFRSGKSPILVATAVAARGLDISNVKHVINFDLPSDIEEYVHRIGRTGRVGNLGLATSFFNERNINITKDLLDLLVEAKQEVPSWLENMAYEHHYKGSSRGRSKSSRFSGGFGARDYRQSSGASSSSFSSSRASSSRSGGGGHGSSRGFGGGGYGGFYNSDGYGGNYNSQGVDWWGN
T2 sequence (O00571 1-427): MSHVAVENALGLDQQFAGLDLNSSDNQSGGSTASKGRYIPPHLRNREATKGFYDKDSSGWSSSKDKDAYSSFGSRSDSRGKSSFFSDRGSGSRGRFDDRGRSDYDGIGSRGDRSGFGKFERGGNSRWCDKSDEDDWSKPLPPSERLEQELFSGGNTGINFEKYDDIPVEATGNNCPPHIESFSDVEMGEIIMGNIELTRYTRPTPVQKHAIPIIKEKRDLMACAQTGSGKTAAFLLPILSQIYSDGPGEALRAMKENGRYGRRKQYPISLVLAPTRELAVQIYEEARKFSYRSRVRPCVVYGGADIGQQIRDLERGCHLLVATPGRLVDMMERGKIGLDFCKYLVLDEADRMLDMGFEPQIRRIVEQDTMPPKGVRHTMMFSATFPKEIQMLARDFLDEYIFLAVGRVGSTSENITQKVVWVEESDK

## DDX3wt: recombinant full length human DDX3 (aa 1–662), N-terminal his-tagged, expressed in E. coli
[1]; +DNA, oligo(dT)20
  k cat: 3.8 ± 0.2 min⁻¹
[1]; +RNA, oligo(rU)20
  k cat: 3.2 ± 0.1 min⁻¹
[1]; absence of nucleic acid
  Intrinsic ability to hydrolyze ATP: detectable ATPase activity
[1]; absence of nucleic acids
  k cat: 1.6 ± 0.2 min⁻¹
[1]; [8]
  Increase of catalytic efficiency (kcat/Km) by DNA: 3.2 fold
  Increase of catalytic efficiency (kcat/Km) by RNA: 2.8 fold
[2]; +DNA, oligo(dT)20
  Aburst: 0.9 ± 0.1 µM
  k burst: 9.5 ± 0.8 min⁻¹
  k ss: 0.4 ± 0.03 min⁻¹
[2]; +RNA, oligo(rU)20
  Aburst: 0.75 ± 0.1 µM
  k burst: 7 ± 0.8 min⁻¹
  k ss: 0.4 ± 0.09 min⁻¹
[2]; absence of nucleic acids
  Aburst: 0.25 ± 0.05 µM
  k burst: 4.1 ± 0.7 min⁻¹
  k ss: 0.3 ± 0.08 min⁻¹
[3]
  Reduction of RNA unwinding rate by addition of the trap: about 2 fold
[3]; +trap, 50-fold molar excess r(A)40 ssRNA, single-turnover
  k uw (apparent rate of RNA unwinding): 0.05 ± 0.01 min⁻¹
[3]; without trap
  k uw (apparent rate of RNA unwinding): 0.11 ± 0.02 min⁻¹
[4]; DNA duplex with a single 5′-protruding end, 18/[5′]-38 mer
  DNA unwinding: able to unwind
[4]; DNA duplex with both 5′- and 3′-protruding ssDNA ends, 18/[5′-3′]-38 mer
  DNA unwinding: able to unwind
[4]; substrate with a 3′-ss DNA region, 18/[3′]-38 mer
  DNA unwinding: not

## O=C(CN1C(=O)/C(=C/c2cccc(Br)c2)SC1=S)Nc1ccccc1O [FE15]
[5]
  Inhibition of ATP hydrolysis: inhibited
[6]
  Inhibition of ATP hydrolysis: inhibited

## SDVPTQVGGRRRRRRRRR [DDX3-INS1]
[7]
  Toxicity for the cells: not toxic
